The assay deals with TGF/SMAD Signaling Pathway SBE Reporter-HEK293 Cell Line. Description: Luciferase screen, TGF/SMAD Signaling Pathway SBE Reporter-HEK293 cells stimulated with TGFβ. Type of assay: cell-based. Conditions: compound 4 hours before TGFβ 10 ng/mL, incubated overnight (18 hours), luminescence. As to the method:
For the data in Table 1, the Bight-Glo™ Luciferase Assay System from Promega was used with TGF/SMAD Signaling Pathway SBE Reporter-HEK293 Cell Line from BPSbioscience. On day 1 SBE reporter-HEK293 cells were seeded at a density of 25,000 cells per well into a white clear-bottom 96-well microplate in 100 μL of growth medium without geneticin. The plate was incubated at 37° C. in a CO2 incubator for 24 hrs. The wells were renewed with 60 μL assay medium and treated with test compounds by adding 5 μL of compounds in medium. The concentration of test compound in medium is adjusted so that 5 μL will provide the desired molarity of the solution. After 4 hours, TGFβ was added to 10 ng/mL. The plate was incubated at 37° C. in a CO2 incubator overnight (18 hours). One hour prior to assay all medium was replaced. The luciferase assay was run using ONE-Step™ Luciferase Assay System by adding 100 μL of ONE-Step™ Luciferase reagent per well, rocking at room temperature for ˜15 to 30 minutes and measuring luminescence using a luminometer. The signals were normalized to percentage inhibition, with non-TGF treated cells as 100% inhibition, and the data were processed by Graphpad Prism.
The symbol “***” indicates IC50<100 nM, “**” indicates IC50≥100 nM but <10 μM, “*” indicates IC50≥10 μM.

Broadly, the IC50 is the concentration needed to halve the response being measured. `O[C@H]1Cc2cc(-c3noc(-c4ccc(Cl)cc4)n3)cnc2OC12CCC2` [Compound 8] returned a half-inhibitory concentration (IC50) not below 10 µM.

Compound `Cn1ccc(-c2noc(-c3cnc4c(c3)C[C@H](O)C3(CCC3)O4)n2)n1` [Compound 6] had an IC50 not below 10 µM.

As for `[2H]C([2H])([2H])C1(C([2H])([2H])[2H])Oc2ncc(-c3nc(-c4ccc(Cl)cc4)no3)cc2C[C@@H]1O` [Compound 9], the IC50 is less than 0.1 µM.

Consider `Cc1ccc(-c2noc(-c3cnc4c(c3)C[C@H](O)C3(CCC3)O4)n2)cc1` [Compound 5], for which the IC50 was not below 10 µM.

In the case of `O[C@H]1Cc2cc(-c3nnc(-c4ccc(Cl)cc4)o3)cnc2OC12CCC2` [Compound 7], the IC50 fell in the range of 0.1 to 10 µM.

The compound `O[C@H]1Cc2cc(-c3nc(-c4ccc(Cl)cc4)no3)cnc2OC12CCCC2` [Compound 3] registered an IC50 not below 10 µM.

Consider `O[C@H]1Cc2cc(-c3nc(-c4ccc(Cl)cc4)no3)cnc2OC12CCC2` [Compound 1], for which the IC50 lay in the range of 0.1 to 10 µM.

In turn, `O[C@H]1Cc2cc(-c3nc(-c4ccc(Cl)c(F)c4)no3)cnc2OC12CCC2` [Compound 4] had an IC50 not below 10 µM.

The compound `O[C@@H]1Cc2cc(-c3nc(-c4ccc(Cl)cc4)no3)cnc2OC12CCC2` [Compound 2] displayed an IC50 of less than 0.1 µM.

(Values after US20240051965A1, “OXYGEN-CONTAINING HETEROCYCLIC COMPOUND AND USE THEREOF” (Icahn School of Medicine at Mount Sinai, priority 2022, published 2024).)
